According to patent US4346173A, “Process for the production of acyl-Coenzyme A oxidase” (Toyo Jozo Kabushiki Kaisha, priority 1979, dated 1982):

Legend:
Assay in all cases: Acyl-CoA oxidase assay (hydrogen peroxide colorimetry at 545 nm), Km value
[1] = test system: acyl-CoA oxidase of Arthrobacter sp. B-0720; type: biochemical; settings: substrate of the assay method: palmitoyl-CoA; 37° C.; phosphate buffer pH 7.0 or tris-HCl buffer pH 8.0
Procedure: (§1) Enzyme solution (10 μl) is added to a reaction mixture (0.5 ml) consisting of 0.2 M phosphate buffer (pH 7.0) or 0.2 M tris-HCl buffer (pH 8.0) (0.1 ml), 5 mM 4-aminoantipyrine (0.05 ml), 3 mM diethyl m-toludine (0.05 ml), peroxidase (0.5 mg/ml, 0.05 ml), 25 mM palmitoyl-CoA (0.02 ml) and distilled water (0.23 ml) and the mixture is incubated at 37° C. for 10 minutes. 4 M urea (0.5 ml) is added to stop the reaction, and 1% by weight of Triton X-100 (2 ml) is added thereto and the generated hydrogen peroxide is measured at 545 nm by colorimetry.
(§2) A unit (1 unit, 1 U) of enzyme activity is defined as the activity of enzyme which generates 1μ mole of hydrogen peroxide per minute.

[2] = test system: acyl-CoA oxidase of Aspergillus candidus M-4815; type: biochemical; settings: substrate of the assay method: palmitoyl-CoA; 37° C.; phosphate buffer pH 7.0 or tris-HCl buffer pH 8.0
Procedure: as §1, §2

[3] = test system: acyl-CoA oxidase of Cladosporium resinae IFO 6367; type: biochemical; settings: substrate of the assay method: palmitoyl-CoA; 37° C.; phosphate buffer pH 7.0 or tris-HCl buffer pH 8.0
Procedure: as §1, §2

[4] = test system: acyl-CoA oxidase of Macrophomina phaseoli ATCC 14383; type: biochemical; settings: substrate of the assay method: palmitoyl-CoA; 37° C.; phosphate buffer pH 7.0 or tris-HCl buffer pH 8.0
Procedure: as §1, §2

[5] = test system: acyl-CoA oxidase of Monascus sp. M-4800; type: biochemical; settings: substrate of the assay method: palmitoyl-CoA; 37° C.; phosphate buffer pH 7.0 or tris-HCl buffer pH 8.0
Procedure: as §1, §2

[6] = substrate: CCCCCCCCCCCCCCCC(=O)SCCNC(=O)CCNC(=O)[C@H](O)C(C)(C)COP(=O)(O)OP(=O)(O)OC[C@H]1O[C@@H](n2cnc3c(N)ncnc32)[C@H](O)[C@@H]1OP(=O)(O)O; type: biochemical, Saccharomyces cerevisiae; settings: other: substrate of the assay method: palmitoyl-CoA, 37° C., phosphate buffer pH 7.0 or tris-HCl buffer pH 8.0
Procedure: as §1, §2

In the case of `CCCCCCCCCCCCCCCC(=O)SCCNC(=O)CCNC(=O)[C@H](O)C(C)(C)COP(=O)(O)OP(=O)(O)OC[C@H]1O[C@@H](n2cnc3c(N)ncnc32)[C@H](O)[C@@H]1OP(=O)(O)O` [palmitoyl-CoA], the Km [1] is reported as 130 µM, the Km [2] is reported as 110 µM and the Km [3] is reported as 120 µM. For the same molecule, the Km [4] was 87 µM and the Km [5] was 150 µM.

B1: acyl-CoA oxidase of Saccharomyces cerevisiae (strain Y 0036) (Saccharomyces cerevisiae S288C) (protein)
chain: MTRRTTINPDSVVLNPQKFIQKERADSKIKVDQVNTFLESSPERRTLTHALIDQIVNDPILKTDTDYYDAKKMQEREITAKKIARLASYMEHDIKTVRKHFRDTDLMKELQANDPDKASPLTNKDLFIFDKRLSLVANIDPQLGTRVGVHLGLFGNCIKGNGTDEQIRYWLQERGATLMKGIYGCFAMTELGHGSNVAQLQTRAVYDKQNDTFVIDTPDLTATKWWIGGAAHSATHAAVYARLIVEGKDYGVKTFVVPLRDPSTFQLLAGVSIGDIGAKMGRDGIDNGWIQFRNVVIPREFMLSRFTKVVRSPDGSVTVKTEPQLDQISGYSALLSGRVNMVMDSFRFGSKFATIAVRYAVGRQQFAPRKGLSETQLIDYPLHQYRVLPQLCVPYLVSPVAFKLMDNYYSTLDELYNASSSAYKAALVTVSKKLKNLFIDSASLKATNTWLIATLIDELRQTCGGHGYSQYNGFGKGYDDWVVQCTWEGDNNVLSLTSAKSILKKFIDSATKGRFDNTLDVDSFSYLKPQYIGSVVSGEIKSGLKELGDYTEIWSITLIKLLAHIGTLVEKSRSIDSVSKLLVLVSKFHALRCMLKTYYDKLNSRDSHISDEITKESMWNVYKLFSLYFIDKHSGEFQQFKIFTPDQISKVVQPQLLALLPIVRKDCIGLTDSFELPDAMLNSPIGYFDGDIYHNYFNEVCRNNPVEADGAGKPSYHALLSSMLGRGFEFDQKLGGAANAEILSKINK
notes: endogenous in cells; host or cells: Saccharomyces cerevisiae Y 0036 (FERM-P No. 5174; enzyme of the producing strain itself)
With B1 the Km [6] was 500 µM.
